Source: publication PMC9008429, “Identification of a New Cholesterol‐Binding Site within the IFN‐γ Receptor that is Required for Signal Transduction” (Advanced Science, 2022)
Residue numbers refer to the chain shown, from its start.

How the values were obtained:
IFN-γR2 [1] = biological target: T1, IFN-γR2 (Homo sapiens, UniProt P38484); assay: competition of photoaffinity labelling in living cells, anti-GFP IP, autoradiography; type: cell-based; conditions: competes with [3H]-photo-chol, dose-dependent; curve only in supplement
T1 construct: gene IFNGR2; full-length, C-terminal GFP fusion (peGFP-N1); transiently expressed in CHO (with IFN-γR1-RLuc) or HAP1 IFN-γR2 KO cells; in the functional receptor two R1 and two R2 chains
T1 sequence (P38484 22-337): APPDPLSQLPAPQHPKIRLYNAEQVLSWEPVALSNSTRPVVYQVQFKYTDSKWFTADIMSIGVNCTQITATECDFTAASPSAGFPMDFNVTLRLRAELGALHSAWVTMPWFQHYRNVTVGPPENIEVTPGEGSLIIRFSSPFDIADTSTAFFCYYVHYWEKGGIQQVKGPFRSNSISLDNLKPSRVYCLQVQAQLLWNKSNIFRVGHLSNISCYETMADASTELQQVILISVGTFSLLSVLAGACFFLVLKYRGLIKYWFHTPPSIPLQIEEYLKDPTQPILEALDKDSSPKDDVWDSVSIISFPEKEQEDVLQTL

IFN-γR2 [2] = biological target: T2, IFN-γR2 (Homo sapiens, UniProt P38484, L250T/I251T/G254F); assay: in vivo photoaffinity labelling, UV cross-link, anti-GFP IP, autoradiography; type: cell-based; conditions: 3 µM probe, 6 h; full-length GFP fusion, CHO and HAP1 IFN-γR2 KO cells; covalent; labelled compound; with or without IFN-γ
T2 construct: gene IFNGR2; full-length, C-terminal GFP fusion (peGFP-N1); transiently expressed in CHO (with IFN-γR1-RLuc) or HAP1 IFN-γR2 KO cells
T2 sequence (P38484 22-337 L250T/I251T/G254F): T1 sequence (P38484 22-337) with L229T, I230T, G233F

% reduction of chol binding vs wild type (IFN-γR2 [2]) [%] | Molecule | competition of photoaffinity labelling in living cells, anti-GFP IP, autoradiogr (IFN-γR2 [1])
– | CC(C)CCC[C@@H](C)[C@H]1CC[C@H]2[C@@H]3CC=C4C[C@@H](O)CC[C@]4(C)[C@H]3CC[C@]12C [chol] | cross‐linking between [^3H]‐photo‐chol and IFN‐γR2 was competed in a dose‐dependent manner
> 50 | [3H]-photo-chol | –
